Among the data in patent publication US9133115B2 (ACHILLION PHARMACEUTICALS, INC., priority 2008, dated 2015) are EC50 values, retold here.

Molecules are shown by their SMILES.

For this test, the system named is HCV replicon. Briefly: HCV replicon replication assay (NPT ELISA) in Huh-7 replicon-containing cells. The format is cell-based. The following applies: Hepatitis C virus, 72 h; HCV replicon in Huh-7 cells, three days incubation; read-out: EC50. Summed up: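 Huh-7 cells carrying a bicistronic HCV replicon (HCV-IRES-neo, EMCV-IRES-driven NS3–NS5B, 3′-NTR) were seeded at 6000-7500 cells/well, grown 24 h to 60-70% confluence, then treated with graded compound concentrations. Replication was read as NPT level by capture ELISA (rabbit anti-NPTII, Eu-N1 secondary); interferon alpha served as positive control.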
(In antiviral work, replicon cells carry a viral genome segment that copies itself.)
In the case of `C=C[C@@H]1C[C@]1(NC(=O)[C@@H]1C[C@@H](Oc2cc(-c3ccccn3)nc3c4c(ccc23)OCC4)CN1C(=O)[C@@H](CC(=O)N1CCCCC1)C(C)(C)C)C(=O)NS(=O)(=O)C1CC1` [Compound 152, (2S,4R)-1-((S)-2-tert-butyl-4-oxo-4-(piperidin-1-yl)butanoyl)-N-((1R,2S)-1-(cyclo-propylsulfonyl-carbamoyl)-2-vinylcyclopropyl)-4-(2-(pyridin-2-yl)-8,9-dihydrofuro[2,3-h]quinolin-4-yloxy)pyrrolidine-2-carboxamide], the EC50 (commonly the midpoint of the concentration-response curve) is under 1 µM.

With `C=C[C@@H]1C[C@]1(NC(=O)[C@@H]1C[C@@H](NC(=O)n2c3ccccc3c3ccccc32)CN1C(=O)[C@@H](CC(=O)N1CCC(F)(F)CC1)C(C)(C)C)C(=O)NS(=O)(=O)C1CC1` [Compound 187, N-((3R,5S)-1-((S)-2-tert-butyl-4-(4,4-difluoropiperidin-1-yl)-4-oxobutanoyl)-5-((1R,2S)-1-(cyclopropylsulfonyl-carbamoyl)-2-vinyl-cyclopropyl-carbamoyl)pyrrolidin-3-yl)-9H-carbazole-9-carboxamide], the EC50 is under 1 µM.

Turning to `CC[C@@H](NC(=O)[C@@H]1C[C@@H](Oc2cc(-c3ccccc3)nc3cc(OC)ccc23)CN1C(=O)[C@@H](CC(=O)N1CCCCC1)C(C)(C)C)C(=O)NS(=O)(=O)C1CC1` [Compound 116, (2S,4R)-1-((S)-2-tert-butyl-4-oxo-4-(piperidin-1-yl)butanoyl)-N-((R)-1-(cyclopropanesulfon-amido)-1-oxobutan-2-yl)-4-(7-methoxy-2-phenylquinolin-4-yloxy)pyrrolidine-2-carboxamide], the EC50 was 1 to 10 µM.

Consider `C=CC1CC1(NC(=O)[C@@H]1C[C@@H](Oc2cc(-c3ccccc3)nc3cc(OC)ccc23)CN1C(=O)[C@@H](CC(=O)N1CCCCC1C(N)=O)C(C)(C)C)C(=O)NS(=O)(=O)C1CC1` (stereo partly drawn) [Compound 42, 1-((3S)-3-((2S,4R)-2-(1-(cyclopropyl-sulfonyl-carbamoyl)-2-vinylcyclopropyl-carbamoyl)-4-(7-methoxy-2-phenylquinolin-4-yloxy)pyrrolidine-1-carbonyl)-4,4-dimethylpentano-yl)piperidine-2-carboxamide], for which the EC50 is under 1 µM.

On to `C=C[C@@H]1C[C@]1(NC(=O)[C@@H]1C[C@@H](Oc2cc(-c3ccccc3)nc3cc(OC)ccc23)CN1C(=O)[C@@H](CC(=O)N1CCCCC1)C(C)(C)C)C(=O)NS(=O)(=O)c1cn(C)cn1` [Compound 73, (2S,4R)-1-((S)-2-tert-butyl-4-oxo-4-(piperidin-1-yl)butanoyl)-4-(7-methoxy-2-phenylquinolin-4-yloxy)-N-((1R,2S)-1-(1-methyl-1H-imidazol-4-ylsulfonylcarbamoyl)-2-vinylcycloprop-yl)pyrrolidine-2-carboxamide], for which the EC50 was in the range of 1 to 10 µM.

Take `C=C[C@@H]1C[C@]1(NC(=O)[C@@H]1C[C@@H](Oc2cc(-c3ccccc3)nc3cc(OC)ccc23)CN1C(=O)[C@@H](CC(=O)N1CC(F)(F)C1)C(C)(C)C)C(=O)NS(=O)(=O)C1CC1` [Compound 223, (2S,4R)-1-((S)-2-tert-butyl-4-(3,3-difluoroazetidin-1-yl)-4-oxobutanoyl)-N-((1R)-1-(cyclopropyl-sulfonylcarbamoyl)-2-vinylcyclopropyl)-4-(7-methoxy-2-phenylquinolin-4-yloxy)pyrrolidine-2-carboxamide]: the EC50 was under 1 µM.

For the molecule `C=C[C@@H]1C[C@]1(NC(=O)[C@@H]1C[C@@H](NC(=O)n2c3ccccc3c3ccccc32)CN1C(=O)[C@@H](CC(=O)N1CC2CC3CC(C2)CC1C3)C(C)(C)C)C(=O)NS(=O)(=O)C1CC1` [Compound 197], the EC50 was under 1 µM.

`C=C[C@@H]1C[C@]1(NC(=O)[C@@H]1C[C@@H](Oc2cc(-c3ccccn3)nc3c(Cl)c(OC)ccc23)CN1C(=O)[C@@H](CC(=O)N1CCCC1C(F)(F)F)C(C)(C)C)C(=O)NS(=O)(=O)C1CC1` (stereo partly drawn) [Compound 207, (2S,4R)-1-((2S)-2-tert-butyl-4-oxo-4-(2-(trifluoromethyl)pyr-rolidin-1-yl)butanoyl)-4-(8-chloro-7-methoxy-2-(pyridin-2-yl)quinolin-4-yloxy)-N-((1R)-1-(cyclopropylsulfonyl-carbamoyl)-2-vinylcyclopropyl)pyr-rolidine-2-carboxamide]: the EC50 is under 1 µM.

As to `C=C[C@@H]1C[C@]1(NC(=O)[C@@H]1C[C@@H](Oc2cc(-c3ccccc3)nc3cc(OC)ccc23)CN1C(=O)[C@@H](CC(=O)N1CCC(CNC(=O)OC(C)(C)C)CC1)C(C)(C)C)C(=O)NS(=O)(=O)C1CC1` [Compound 76, tert-butyl (1-((S)-3-((2S,4R)-2-((1R,2S)-1-(cyclopropylsulfonyl-carbamoyl)-2-vinylcyclopropyl-carbamoyl)-4-(7-methoxy-2-phenylquinolin-4-yloxy)pyrrolidine-1-carbonyl)-4,4-dimethylpentano-yl)piperidin-4-yl)methylcarbamate], the EC50 is under 1 µM.

Take `C=C[C@@H]1C[C@]1(NC(=O)[C@@H]1C[C@@H](Oc2cc(-c3ccccn3)c3ccc4c(c3n2)CCO4)CN1C(=O)[C@@H](CC(=O)N1CCCCC1)C(C)(C)C)C(=O)NS(=O)(=O)C1CC1` [Compound 150, (2S,4R)-1-((S)-2-tert-butyl-4-oxo-4-(piperidin-1-yl)butanoyl)-N-((1R,2S)-1-(cyclo-propylsulfonyl-carbamoyl)-2-vinylcyclopropyl)-4-(4-(pyridin-2-yl)-8,9-dihydrofuro[2,3-h]quinolin-2-yloxy)pyrrolidine-2-carboxamide]: the EC50 was under 1 µM.

As for `COc1ccc2c(O[C@@H]3C[C@@H](C(=O)N[C@H](C(=O)NS(=O)(=O)C4CC4)c4ccccc4)N(C(=O)[C@@H](CC(=O)N4CCCCC4)C(C)(C)C)C3)cc(-c3ccccc3)nc2c1` [Compound 112, (2S,4R)-1-((S)-2-tert-butyl-4-oxo-4-(piperidin-1-yl)butanoyl)-N-((S)-2-(cyclopropane-sulfonamido)-2-oxo-1-phenylethyl)-4-(7-methoxy-2-phenylquinolin-4-yloxy)pyrrolidine-2-carboxamide], the concentration for a half-maximal effect (EC50) lay within 1 to 10 µM.

`COc1ccc2c(O[C@@H]3C[C@@H](C(=O)N[C@@H](C(=O)NS(=O)(=O)C4CC4)C(C)C)N(C(=O)[C@@H](CC(=O)N4CCCCC4)C(C)(C)C)C3)cc(-c3ccccc3)nc2c1` [Compound 118, (2S,4R)-1-((S)-2-tert-butyl-4-oxo-4-(piperidin-1-yl)butanoyl)-N-((R)-1-(cyclopropanesulfon-amido)-3-methyl-1-oxobutan-2-yl)-4-(7-methoxy-2-phenylquinolin-4-yloxy)pyrrolidine-2-carboxamide]: the EC50 is 1 to 10 µM.

As for `C=C[C@H]1C[C@]1(NC(=O)[C@@H]1C[C@@H](Oc2cc(-c3ccccc3)nc3cc(OC)ccc23)CN1C(=O)C[C@@H](CC1CCCC1)C(=O)N1CCCCC1)C(=O)NS(=O)(=O)C1CC1` [Compound 56, (2S,4R)-1-((R)-3-(cyclopentyl-methyl)-4-oxo-4-(piperidin-1-yl)butanoyl)-N-((1R,2R)-1-(cyclopropyl-sulfonylcarbamoyl)-2-vinylcyclopropyl)-4-(7-methoxy-2-phenylquinolin-4-yloxy)pyrrolidine-2-carboxamide], the EC50 lay in the range of 1 to 10 µM.

On to `C=C[C@@H]1C[C@]1(NC(=O)[C@@H]1C[C@@H](Oc2cc(-c3ccccc3)nc3c(C)c(OC)ccc23)CN1C(=O)[C@@H](CC(=O)N1CCCCC1)C(C)(C)C)C(=O)NS(=O)(=O)C1CC1` [Compound 239], for which the EC50 is under 1 µM.

For `COc1ccc2c(O[C@@H]3C[C@@H](C(=O)NC4(C(=O)NS(=O)(=O)C5CC5)CCCC4)N(C(=O)[C@@H](CC(=O)N4CCCCC4)C(C)(C)C)C3)cc(-c3ccccc3)nc2c1` [Compound 98, (2S,4R)-1-((S)-2-tert-butyl-4-oxo-4-(piperidin-1-yl)butanoyl)-N-(1-(cyclopropylsulfonyl-carbamoyl)cyclo-pentyl)-4-(7-methoxy-2-phenylquinolin-4-yloxy)pyrrolidine-2-carboxamide], the EC50 lay in the range of 1 to 10 µM.

On to `C=C[C@@H]1C[C@]1(NC(=O)[C@@H]1C[C@@H](n2nc(-c3ccccc3)c(-c3ccccc3)n2)CN1C(=O)[C@@H](CC(=O)N1CCCCC1)C(C)(C)C)C(=O)NS(=O)(=O)C1CC1` [Compound 139, (2S,4R)-1-((S)-2-tert-butyl-4-oxo-4-(piperidin-1-yl)butanoyl)-N-((1R,2S)-1-(cyclopropyl-sulfonylcarbamoyl)-2-vinylcyclopropyl)-4-(4,5-diphenyl-2H-1,2,3-triazol-2-yl)pyrrolidine-2-carboxamide], for which the EC50 is under 1 µM.

Take `C=C[C@@H]1C[C@]1(NC(=O)[C@@H]1C[C@@H](Oc2cc(-c3ccccc3)nc3cc(OC)ccc23)CN1C(=O)[C@@H](CC(=O)N1CCC(F)CC1)C(C)(C)C)C(=O)NS(=O)(=O)C1CC1` [Compound 82, (2S,4R)-1-((S)-2-tert-butyl-4-(4-fluoropiperidin-1-yl)-4-oxobutanoyl)-N-((1R,2S)-1-(cyclopropyl-sulfonylcarbamoyl)-2-vinylcyclopropyl)-4-(7-methoxy-2-phenylquinolin-4-yloxy)pyrrolidine-2-carboxamide]: the EC50 was under 1 µM.

`C=C[C@@H]1C[C@]1(NC(=O)[C@@H]1C[C@@H](Oc2cc(-c3ccccc3)nc3cc(OC)ccc23)CN1C(=O)[C@@H](CC(=O)N1CCC[C@H](NC(=O)OC(C)(C)C)C1)C(C)(C)C)C(=O)NS(=O)(=O)C1CC1` [Compound 167]: the EC50 is under 1 µM.

With `C=C[C@@H]1C[C@]1(NC(=O)[C@@H]1C[C@@H](Oc2cc(-c3ccccc3)nc3cc(OC)ccc23)CN1C(=O)[C@@H](CC(=O)N1CCC[C@H]1C(=O)N(C)C)C(C)(C)C)C(=O)NS(=O)(=O)C1CC1` [Compound 88, (2S,4R)-1-((S)-2-tert-butyl-4-((S)-2-(dimethylcarbamo-yl)pyrrolidin-1-yl)-4-oxobutanoyl)-N-((1R,2S)-1-(cyclopropylsulfonyl-carbamoyl)-2-vinylcyclopropyl)-4-(7-methoxy-2-phenylquinolin-4-yloxy)pyrrolidine-2-carboxamide], the EC50 was under 1 µM.
